Where two headings read alike, the source gives them in different places.
Legend:
[1] = molecular target: T1, Cannabinoid CB1 Receptor (Homo sapiens, UniProt P21554); experiment: Binding assay for CB1 agonists or inverse agonists (radioligand competition, membranes of transfected SK-N-MC cells); settings: for inhibition at 0.2 µM: read-out: Cannabinoid CB1 Receptor Binding percent inhibition
T1 construct: expressed in transfected cells

[2] = molecular target: T2, Cannabinoid CB2 Receptor (Homo sapiens, UniProt P34972); experiment: Binding assay for CB2 agonists or inverse agonists (radioligand competition, membranes of transfected SK-N-MC cells); settings: read-out: Cannabinoid CB2 Receptor Binding percent inhibition
T2 construct: expressed in transfected cells
T2 sequence (P34972 whole entry): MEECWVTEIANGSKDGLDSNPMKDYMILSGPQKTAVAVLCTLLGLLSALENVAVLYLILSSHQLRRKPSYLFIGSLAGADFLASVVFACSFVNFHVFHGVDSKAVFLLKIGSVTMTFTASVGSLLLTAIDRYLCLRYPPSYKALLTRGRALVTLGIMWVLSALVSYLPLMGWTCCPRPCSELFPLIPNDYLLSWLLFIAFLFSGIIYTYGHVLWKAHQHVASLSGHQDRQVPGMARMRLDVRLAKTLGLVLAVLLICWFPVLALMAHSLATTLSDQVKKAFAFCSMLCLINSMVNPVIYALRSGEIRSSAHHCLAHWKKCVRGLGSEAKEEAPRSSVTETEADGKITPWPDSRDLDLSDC

[3] = molecular target: CB1 receptor (human) (Homo sapiens, UniProt P21554); experiment: cell-based
Sequence of CB1 receptor (human) (P21554 whole entry): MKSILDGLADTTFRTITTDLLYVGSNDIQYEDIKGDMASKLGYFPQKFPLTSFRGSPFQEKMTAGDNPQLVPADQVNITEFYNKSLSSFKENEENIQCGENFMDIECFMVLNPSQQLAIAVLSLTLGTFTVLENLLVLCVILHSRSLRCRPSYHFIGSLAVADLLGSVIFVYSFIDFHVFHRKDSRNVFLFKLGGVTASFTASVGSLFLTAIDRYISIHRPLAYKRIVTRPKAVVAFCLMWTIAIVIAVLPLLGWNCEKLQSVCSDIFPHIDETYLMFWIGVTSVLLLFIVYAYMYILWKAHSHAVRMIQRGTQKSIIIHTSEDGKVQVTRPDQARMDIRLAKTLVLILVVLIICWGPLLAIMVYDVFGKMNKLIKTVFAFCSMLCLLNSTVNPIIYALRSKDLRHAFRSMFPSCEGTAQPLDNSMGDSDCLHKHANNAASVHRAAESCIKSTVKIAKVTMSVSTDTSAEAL

[4] = test concentration of 0.2 μM, compounds without an IC50 binding value

T1 sequence (P21554 whole entry): as above

COC(=O)N1C/C(=C\c2ccc(F)cc2)c2c(c(C(=O)N[C@H](C)c3ccccc3)nn2-c2ccc(Cl)cc2Cl)C1 [Cpd 1, (7E)-1-(2,4-dichloro-phenyl)-7-(4-fluoro-benzylidene)-3-[(1R)-1-phenyl-ethyl-carbamoyl]-1,4,6,7-tetrahydro-pyrazolo[4,3-c]pyridine-5-carboxylic acid methyl ester]
IC50 [1]: 3 nM | inhibition at 0.2 µM [2]: 26% | EC50 [3]: 1 nM

C[C@@H](NC(=O)c1nn(-c2ccc(Cl)cc2Cl)c2c1CN(C(=O)OC(C)(C)C)C/C2=C\c1ccc(F)cc1)c1ccccc1 [Cpd 2, (7E)-1-(2,4-dichloro-phenyl)-7-(4-fluoro-benzylidene)-3-[(1R)-1-phenyl-ethyl-carbamoyl]-1,4,6,7-tetrahydro-pyrazolo[4,3-c]pyridine-5-carboxylic acid tert-butyl ester]
IC50 [1]: 30 nM | inhibition at 0.2 µM [2]: 16% | EC50 [3]: 10 nM

CC(=O)N1C/C(=C\c2ccc(F)cc2)c2c(c(C(=O)N[C@H](C)c3ccccc3)nn2-c2ccc(Cl)cc2Cl)C1 [Cpd 3, (7E)-5-acetyl-1-(2,4-dichloro-phenyl)-7-(4-fluoro-benzylidene)-4,5,6,7-tetrahydro-1H-pyrazolo[4,3-c]pyridine-3-carboxylic acid [(1R)-1-phenyl-ethyl]-amide]
IC50 [1]: 10 nM | inhibition at 0.2 µM [2]: 20% | EC50 [3]: 3 nM

CC(=O)N1C/C(=C\c2ccc(F)cc2)c2c(c(C(=O)N[C@@H](C)C3CCCCC3)nn2-c2ccc(Cl)cc2Cl)C1 [Cpd 6, (7E)-5-acetyl-1-(2,4-dichloro-phenyl)-7-(4-fluoro-benzylidene)-4,5,6,7-tetrahydro-1H-pyrazolo[4,3-c]pyridine-3-carboxylic acid [(1S)-1-cyclohexyl-ethyl]-amide]
IC50 [1]: 100 nM | inhibition at 0.2 µM [2]: 14% | EC50 [3]: 30 nM

COC(=O)N1C/C(=C\c2ccc(F)cc2)c2c(c(C(=O)N[C@@H](C)C3CCCCC3)nn2-c2ccc(Cl)cc2Cl)C1 [Cpd 7, (7E)-3-[(1S)-1-cyclohexyl-ethylcarbamoyl]-1-(2,4-dichloro-phenyl)-7-(4-fluoro-benzylidene)-1,4,6,7-tetrahydro-pyrazolo[4,3-c]pyridine-5-carboxylic acid methyl ester]
IC50 [1]: 40 nM | inhibition at 0.2 µM [2, 4]: 13% | EC50 [3]: 10 nM

C[C@@H](NC(=O)c1nn(-c2ccc(Cl)cc2Cl)c2c1CN(C(=O)OC(C)(C)C)C/C2=C\c1ccc(F)cc1)C1CCCCC1 [Cpd 8, (7E)-3-[(1R)-1-cyclohexyl-ethylcarbamoyl]-1-(2,4-dichloro-phenyl)-7-(4-fluoro-benzylidene)-1,4,6,7-tetrahydro-pyrazolo[4,3-c]pyridine-5-carboxylic acid tert-butyl ester]
IC50 [1]: 60 nM | inhibition at 0.2 µM [2]: 34% | EC50 [3]: 200 nM

CC(C)(C)OC(=O)N1C/C(=C\c2ccc(F)cc2)c2c(c(C(=O)NN3CCCCC3)nn2-c2ccc(Cl)cc2Cl)C1 [Cpd 9, (7E)-1-(2,4-dichloro-phenyl)-7-(4-fluoro-benzylidene)-3-(piperidin-1-ylcarbamoyl)-1,4,6,7-tetrahydro-pyrazolo[4,3-c]pyridine-5-carboxylic acid tert-butyl ester]
inhibition at 0.2 µM [1]: 55% | inhibition at 0.2 µM [2]: 8% | EC50 [3]: 20 nM

CC(=O)N1C/C(=C\c2ccc(F)cc2)c2c(c(C(=O)NN3CCCCC3)nn2-c2ccc(Cl)cc2Cl)C1 [Cpd 10, (7E)-5-acetyl-1-(2,4-dichloro-phenyl)-7-(4-fluoro-benzylidene)-4,5,6,7-tetrahydro-1H-pyrazolo[4,3-c]pyridine-3-carboxylic acid piperidin-1-ylamide]
IC50 [1]: 70 nM | inhibition at 0.2 µM [2]: 63% | EC50 [3]: 20 nM

COC(=O)N1C/C(=C\c2ccc(F)cc2)c2c(c(C(=O)NN3CCCCC3)nn2-c2ccc(Cl)cc2Cl)C1 [Cpd 11, (7E)-1-(2,4-dichloro-phenyl)-7-(4-fluoro-benzylidene)-3-(piperidin-1-ylcarbamoyl)-1,4,6,7-tetrahydro-pyrazolo[4,3-c]pyridine-5-carboxylic acid methyl ester]
IC50 [1]: 50 nM | inhibition at 0.2 µM [2]: 15% | EC50 [3]: 40 nM

O=C(NN1CCCCC1)c1nn(-c2ccc(Cl)cc2Cl)c2c1CNC/C2=C\c1ccc(F)cc1 [Cpd 12, (7E)-1-(2,4-dichloro-phenyl)-7-(4-fluoro-benzylidene)-4,5,6,7-tetrahydro-1H-pyrazolo[4,3-c]pyridine-3-carboxylic acid piperidin-1-ylamide]
IC50 [1]: 100 nM | inhibition at 0.2 µM [2]: 5% | EC50 [3]: 80 nM

COC(=O)N1C/C(=C\c2ccc(F)cc2)c2c(c(C(=O)N[C@H](C)C3CCCCC3)nn2-c2ccc(Cl)cc2Cl)C1 [Cpd 13, (7E)-3-[(1R)-1-cyclohexyl-ethylcarbamoyl]-1-(2,4-dichloro-phenyl)-7-(4-fluoro-benzylidene)-1,4,6,7-tetrahydro-pyrazolo[4,3-c]pyridine-5-carboxylic acid methyl ester]
IC50 [1]: 2 nM | inhibition at 0.2 µM [2, 4]: 11% | EC50 [3]: 10 nM

CC(=O)N1C/C(=C\c2ccc(F)cc2)c2c(c(C(=O)N[C@H](C)C3CCCCC3)nn2-c2ccc(Cl)cc2Cl)C1 [Cpd 14, (7E)-5-acetyl-1-(2,4-dichloro-phenyl)-7-(4-fluoro-benzylidene)-4,5,6,7-tetrahydro-1H-pyrazolo[4,3-c]pyridine-3-carboxylic acid [(1R)-1-cyclohexyl-ethyl]-amide]
IC50 [1]: 8 nM | inhibition at 0.2 µM [2]: 16% | EC50 [3]: 4 nM

C[C@@H](NC(=O)c1nn(-c2ccc(Cl)cc2Cl)c2c1CNC/C2=C\c1ccc(F)cc1)c1ccccc1 [Cpd 15, (7E)-1-(2,4-dichloro-phenyl)-7-(4-fluoro-benzylidene)-4,5,6,7-tetrahydro-1H-pyrazolo[4,3-c]pyridine-3-carboxylic acid [(1R)-1-phenyl-ethyl]-amide]
IC50 [1]: 10 nM | inhibition at 0.2 µM [2]: 23% | EC50 [3]: 10 nM

C[C@@H](NC(=O)c1nn(-c2ccc(Cl)cc2Cl)c2c1CN(C(=O)OCc1ccccc1)C/C2=C\c1ccc(F)cc1)c1ccccc1 [Cpd 16, (7E)-1-(2,4-dichloro-phenyl)-7-(4-fluoro-benzylidene)-3-[(1R)-1-phenyl-ethylcarbamoyl]-1,4,6,7-tetrahydro-pyrazolo[4,3-c]pyridine-5-carboxylic acid benzyl ester]
IC50 [1]: 20 nM | inhibition at 0.2 µM [2]: 27% | EC50 [3]: 60 nM

CCNC(=O)N1CCc2c(c(C(=O)NC3C4(C)CCC(C4)C3(C)C)nn2C2CCCCC2)C1 (stereo not shown) [Cpd 129, 1-cyclohexyl-1,4,6,7-tetrahydro-pyrazolo[4,3-c]pyridine-3,5-dicarboxylic acid 5-ethylamide 3-[(1,3,3-trimethyl-bicyclo[2.2.1]hept-2-yl)-amide]]
IC50 [1]: 1000 nM | CB1 Receptor Functional Activity (change in functional activity, CRE β-gal) ([3]; one compound concentration, β-galactosidase activity relative to vehicle treated cells): 36%

COc1ccc(/C=C2\CN(C(=O)OC(C)(C)C)Cc3c(C(=O)N4CCCCC4)nn(-c4ccc(Cl)cc4Cl)c32)cc1 [Cpd 137, (7E)-1-(2,4-dichloro-phenyl)-7-(4-methoxy-benzylidene)-3-(piperidine-1-carbonyl)-1,4,6,7-tetrahydro-pyrazolo[4,3-c]pyridine-5-carboxylic acid tert-butyl ester]
inhibition at 0.2 µM [1, 4]: 34% | inhibition at 0.2 µM [2, 4]: 42%

COc1ccc(/C=C2\CN(C(=O)OC(C)(C)C)Cc3c(C(=O)NN4CCC(O)CC4)nn(-c4ccc(Cl)cc4Cl)c32)cc1 [Cpd 141, (7E)-1-(2,4-dichloro-phenyl)-3-(4-hydroxy-piperidin-1-ylcarbamoyl)-7-(4-methoxy-benzylidene)-1,4,6,7-tetrahydro-pyrazolo[4,3-c]pyridine-5-carboxylic acid tert-butyl ester]
inhibition at 0.2 µM [1, 4]: 6% | inhibition at 0.2 µM [2, 4]: 9%

COc1ccc(/C=C2\CNCc3c(C(=O)NN4CCC(O)CC4)nn(-c4ccc(Cl)cc4Cl)c32)cc1 [Cpd 142, (7E)-1-(2,4-dichloro-phenyl)-7-(4-methoxy-benzylidene)-4,5,6,7-tetrahydro-1H-pyrazolo[4,3-c]pyridine-3-carboxylic acid (4-hydroxy-piperidin-1-yl)-amide]
inhibition at 0.2 µM [1, 4]: 10% | inhibition at 0.2 µM [2, 4]: 0%

CC(C)(C)OC(=O)N1C/C(=C\c2ccc(F)cc2)c2c(c(C(=O)NN3CCC(O)CC3)nn2-c2ccc(Cl)cc2Cl)C1 [Cpd 143, (7E)-1-(2,4-dichloro-phenyl)-7-(4-fluoro-benzylidene)-3-(4-hydroxy-piperidin-1-ylcarbamoyl)-1,4,6,7-tetrahydro-pyrazolo[4,3-c]pyridine-5-carboxylic acid tert-butyl ester]
inhibition at 0.2 µM [1, 4]: 4% | inhibition at 0.2 µM [2, 4]: 0%

COC(=O)N1C/C(=C\c2ccc(OC)cc2)c2c(c(C(=O)NN3CCC(O)CC3)nn2-c2ccc(Cl)cc2Cl)C1 [Cpd 144, (7E)-1-(2,4-dichloro-phenyl)-3-(4-hydroxy-piperidin-1-ylcarbamoyl)-7-(4-methoxy-benzylidene)-1,4,6,7-tetrahydro-pyrazolo[4,3-c]pyridine-5-carboxylic acid methyl ester]
inhibition at 0.2 µM [1, 4]: 42% | inhibition at 0.2 µM [2, 4]: 27%

O=C(NN1CCC(O)CC1)c1nn(-c2ccc(Cl)cc2Cl)c2c1CNC/C2=C\c1ccc(F)cc1 [Cpd 145, (7E)-1-(2,4-dichloro-phenyl)-7-(4-fluoro-benzylidene)-4,5,6,7-tetrahydro-1H-pyrazolo[4,3-c]pyridine-3-carboxylic acid (4-hydroxy-piperidin-1-yl)-amide]
inhibition at 0.2 µM [1, 4]: 12% | inhibition at 0.2 µM [2, 4]: 5%

COC(=O)N1C/C(=C\c2ccc(F)cc2)c2c(c(C(=O)NN3CCC(O)CC3)nn2-c2ccc(Cl)cc2Cl)C1 [Cpd 146, (7E)-1-(2,4-dichloro-phenyl)-7-(4-fluoro-benzylidene)-3-(4-hydroxy-piperidin-1-ylcarbamoyl)-1,4,6,7-tetrahydro-pyrazolo[4,3-c]pyridine-5-carboxylic acid methyl ester]
inhibition at 0.2 µM [1, 4]: 40% | inhibition at 0.2 µM [2, 4]: 11%

— patent US20060089378A1 (priority 2004, published 2006)
